Structures are written as SMILES.

The target in assay [1] is BTK(wt) (Homo sapiens (Human), UniProt Q06187). Put plainly: In vitro inhibitory activity against BTK(wt) enzyme (33P-ATP filter binding). The class given is biochemical. As to conditions: class symbols. How it is done:
(§1) The substrate solution was prepared by adding the substrate poly(Glu, Tyr) sodium salt (Sigma Aldrich, St. Louis, Mo.) to the substrate reaction buffer (20 mM Hepes (pH 7.5), 10 mM MgCl2, 1 mM EGTA, 0.02% Brij35, 0.02 mg/mL BSA, 0.1 mM Na3VO4, 2 mM DTT and 1% DMSO) (final substrate concentration in the reaction solution was 0.2 μM). Test compound was formulated into stock solutions at 10 mM concentration with 100% DMSO, and 3-fold serial dilution for 10 doses was performed in a 384-well cyclic olefin copolymer LDV microplate. […] Test compound in 100% DMSO was then added to the kinase reaction mixture by acoustic liquid transfer technology (Echo 550; nanoliter range) (Labcyte Inc, Sunnyvale, Calif.) and incubated for 20 min at room temperature. 33P-ATP (specific activity 10 μCi/μL) was added to the reaction mixture to initiate the reaction, followed by incubation at room temperature for 2 h. A small portion of the reaction mixture was dropped onto P-81 ion exchange filter paper (Whatman). After washing the unbound phosphate from the filter paper with 0.75% phosphate buffer (three times) and drying, the remaining radioactivity on the filter paper was measured. The kinase activity was expressed as the percentage of the remaining kinase activity in the test sample to the kinase activity in the vehicle (dimethyl sulfoxide) blank control. IC50 values were calculated by curve fitting the data obtained using Prism (GraphPad Software).

Assay [2] has as its target BTK(C481S) (Homo sapiens (Human), UniProt Q06187, C481S). Put plainly: In vitro inhibitory activity against BTK(C481S) enzyme (33P-ATP filter binding). It counts as biochemical. As to conditions: class symbols; read-out: IC50 BTK(C48IS). How it is done: as §1

BTK(wt), sequence (Q06187 whole entry): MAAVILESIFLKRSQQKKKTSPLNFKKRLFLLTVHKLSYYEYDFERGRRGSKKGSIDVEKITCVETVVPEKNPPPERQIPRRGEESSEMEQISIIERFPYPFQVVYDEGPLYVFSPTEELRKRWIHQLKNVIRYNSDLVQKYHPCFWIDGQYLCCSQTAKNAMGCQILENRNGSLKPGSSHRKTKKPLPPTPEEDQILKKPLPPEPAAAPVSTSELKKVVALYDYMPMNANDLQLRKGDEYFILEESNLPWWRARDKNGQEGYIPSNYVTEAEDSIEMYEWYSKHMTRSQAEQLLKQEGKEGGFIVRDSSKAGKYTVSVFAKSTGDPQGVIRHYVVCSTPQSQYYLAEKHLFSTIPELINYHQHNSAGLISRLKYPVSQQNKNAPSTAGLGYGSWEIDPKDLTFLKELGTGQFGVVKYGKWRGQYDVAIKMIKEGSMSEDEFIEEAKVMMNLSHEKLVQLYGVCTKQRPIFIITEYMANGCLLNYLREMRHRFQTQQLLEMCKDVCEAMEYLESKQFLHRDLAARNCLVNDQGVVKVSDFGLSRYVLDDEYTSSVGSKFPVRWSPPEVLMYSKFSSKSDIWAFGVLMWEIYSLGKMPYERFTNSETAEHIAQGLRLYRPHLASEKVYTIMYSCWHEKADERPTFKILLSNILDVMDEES
BTK(C481S), sequence (Q06187 whole entry C481S): as the sequence (Q06187 whole entry) above, with C481S counted along it

For the compound `CC#CC(=O)NC12CCC(c3nc(-c4ccc(Oc5ccccc5)cc4)c4c(N)nccn34)(CC1)C2` [Compound A-7-14, N-(4-(8-amino-1-(4-phenoxyphenyl)imidazo[1,5-a]pyrazin-3-yl)bicyclo[2.2.1]heptan-1-yl)but-2-ynamide], the half-maximal inhibitory concentration (IC50) (commonly the concentration that gives 50% inhibition) in assay [1] fell in the range of 1 to 10 nM; in assay [2], 0.1 to 1 nM.

Turning to `Nc1nccn2c(C34CCC(NC(=O)c5ccco5)(CC3)C4)nc(-c3ccc(C(=O)Nc4cc(C(F)(F)F)ccn4)cc3)c12` [Compound A-10-21, N-(4-(8-amino-1-(4-((4-(trifluoromethyl)pyridin-2-yl)carbamoyl)phenyl)imidazo[1,5-a]pyrazin-3-yl)bicyclo[2.2.1]heptan-1-yl)furan-2-carboxamide], the concentration for half-maximal inhibition (IC50) in assay [1] and in assay [2] was 1 to 10 nM throughout.

As for `CC#CC(=O)NC12CCC(c3nc(-c4ccc(C(=O)Nc5cc(C(F)(F)F)ccn5)cc4F)c4c(N)nccn34)(CC1)C2` [Compound A-7-9, 4-(8-amino-3-(4-(but-2-ynamido)bicyclo[2.2.1]heptan-1-yl)imidazo[1,5-a]pyrazin-1-yl)-3-fluoro-N-(4-(trifluoromethyl)pyridin-2-yl)benzamide], the IC50 is 1 to 10 nM in assay [1] and 0.1 to 1 nM in assay [2].

In the case of `COc1ccc(F)cc1C(=O)NCc1ccc(-c2nc(C34CCC(NC(=O)C(C)(C)O)(CC3)C4)n3ccnc(N)c23)cc1` [Compound A-16-1, N-(4-(8-amino-3-(4-(2-hydroxy-2-methylpropanamido)bicyclo[2.2.1]heptan-1-yl)imidazo[1,5-a]pyrazin-1-yl)benzyl)-5-fluoro-2-methoxybenzamide], the figures for the IC50 in assay [1] and in assay [2] were 10 to 50 nM and 1 to 10 nM, respectively.

For the compound `C=CC(=O)NC12CCC(c3nc(-c4ccc(C(=O)Nc5cc(C(F)(F)F)ccn5)cc4)c4c(N)nccn34)(CC1)C2` [Compound A-10-3, 4-(3-(4-acrylamidobicyclo[2.2.1]heptan-1-yl)-8-aminoimidazo[1,5-a]pyrazin-1-yl)-N-(4-(trifluoromethyl)pyridin-2-yl)benzamide], the results for the half-inhibitory concentration (IC50) in assay [1] and in assay [2] were 1 to 10 nM and 0.1 to 1 nM, respectively.

As to `CC#CC(=O)NC12CCC(c3nc(-c4ccc(CNC(=O)c5cc(F)ccc5OC)cc4)c4c(N)nccn34)(CC1)C2` [Compound A-7-12, N-(4-(8-amino-3-(4-(but-2-ynamido)bicyclo[2.2.1]heptan-1-yl)imidazo[1,5-a]pyrazin-1-yl)benzyl)-5-fluoro-2-methoxybenzamide], the half-maximal inhibitory concentration (IC50) in assay [1] lay within 1 to 10 nM; in assay [2], 0.1 to 1 nM.

Turning to `COc1ccc(F)cc1C(=O)NCc1ccc(-c2nc(C34CCC(NC(=O)C5(C)COC5)(CC3)C4)n3ccnc(N)c23)cc1` [Compound A-16-3, N-(4-(8-amino-1-(4-((5-fluoro-2-methoxybenzamido)methyl)phenyl)imidazo[1,5-a]pyrazin-3-yl)bicyclo[2.2.1]heptan-1-yl)-3-methyloxetane-3-carboxamide], the half-maximal inhibitory concentration (IC50) in assay [1] and in assay [2] was 1 to 10 nM each time.

`CC(C#N)C(=O)NC12CCC(c3nc(-c4ccc(C(=O)Nc5cc(C(F)(F)F)ccn5)cc4)c4c(N)nccn34)(CC1)C2` (stereo not drawn) [Compound A-10-14, 4-(8-amino-3-(4-(2-cyanopropanamido)bicyclo[2.2.1]heptan-1-yl)imidazo[1,5-a]pyrazin-1-yl)-N-(4-(trifluoromethyl)pyridin-2-yl)benzamide]: the results for the half-maximal inhibitory concentration (IC50) in assay [1] and in assay [2] were 1 to 10 nM and 0.1 to 1 nM, respectively.

Consider `COCCC(=O)NC12CCC(c3nc(-c4ccc(Oc5ccccc5)cc4)c4c(N)nccn34)(CC1)C2` [Compound A-13-2, N-(4-(8-amino-1-(4-phenoxyphenyl)imidazo[1,5-a]pyrazin-3-yl)bicyclo[2.2.1]heptan-1-yl)-3-methoxypropanamide], for which the results for the IC50 in assay [1] and in assay [2] were 1 to 10 nM and 0.1 to 1 nM, respectively.

As to `COCCC(=O)NC12CCC(n3cc(-c4ccc(C(=O)Nc5cc(C(F)(F)F)ccn5)cc4)c4c(N)ncnc43)(CC1)C2` [Compound B-6-3, 4-(4-amino-7-(4-(3-methoxypropanamido)bicyclo[2.2.1]heptan-1-yl)-7H-pyrrolo[2,3-d]pyrimidin-5-yl)-N-(4-(trifluoromethyl)pyridin-2-yl)benzamide], the concentration for half-maximal inhibition (IC50) in assay [1] and in assay [2] was 1 to 10 nM each time.

Take `COc1ccccc1C(=O)NC12CCC(c3nc(-c4ccc(C(=O)Nc5cc(C(F)(F)F)ccn5)cc4)c4c(N)nccn34)(CC1)C2` [Compound A-10-20, N-(4-(8-amino-1-(4-((4-(trifluoromethyl)pyridin-2-yl)carbamoyl)phenyl)imidazo[1,5-a]pyrazin-3-yl)bicyclo[2.2.1]heptan-1-yl)-2-methoxybenzamide]: the IC50 in assay [1] is 10 to 50 nM; in assay [2], 1 to 10 nM.

Turning to `COC/C=C/C(=O)NC12CCC(c3nc(-c4ccc(C(=O)Nc5cc(C(F)(F)F)ccn5)cc4)c4c(N)nccn34)(CC1)C2` [Compound A-10-1, (E)-4-(8-amino-3-(4-(4-methoxybut-2-enamido)bicyclo[2.2.1]heptan-1-yl)imidazo[1,5-a]pyrazin-1-yl)-N-(4-(trifluoromethyl)pyridin-2-yl)benzamide], the IC50 in assay [1] was 1 to 10 nM; in assay [2] it was 0.1 to 1 nM.

As for `Nc1nccn2c(C34CCC(NC(=O)CN5CCOCC5)(CC3)C4)nc(-c3ccc(Oc4ccccc4)cc3)c12` [Compound A-13-4, N-(4-(8-amino-1-(4-phenoxyphenyl)imidazo[1,5-a]pyrazin-3-yl)bicyclo[2.2.1]heptan-1-yl)-2-morpholinoacetamide], the half-maximal inhibitory concentration (IC50) fell in the range of 10 to 50 nM in assay [1] and 1 to 10 nM in assay [2].

For the compound `Nc1nccn2c(C34CCC(NC(=O)c5ccccc5)(CC3)C4)nc(-c3ccc(C(=O)Nc4cc(C(F)(F)F)ccn4)cc3)c12` [Compound A-10-17, 4-(8-amino-3-(4-benzamidobicyclo[2.2.1]heptan-1-yl)imidazo[1,5-a]pyrazin-1-yl)-N-(4-(trifluoromethyl)pyridin-2-yl)benzamide], the concentration for half-maximal inhibition (IC50) in assay [1] is 10 to 50 nM; in assay [2], 1 to 10 nM.

On to `CC#CC(=O)NC12CCC(n3c(=O)n(-c4ccc(C(=O)Nc5cc(C(F)(F)F)ccn5)cc4)c4c(N)ncnc43)(CC1)C2` [Compound C-7-1, 4-(6-amino-9-(4-(but-2-ynamido)bicyclo[2.2.1]heptan-1-yl)-8-oxo-8,9-dihydro-7H-purin-7-yl)-N-(4-(trifluoromethyl)pyridin-2-yl)benzamide], for which the half-inhibitory concentration (IC50) in assay [1] and in assay [2] was 1 to 10 nM in each case.

In the case of `N#CC1(C(=O)NC23CCC(c4nc(-c5ccc(C(=O)Nc6cc(C(F)(F)F)ccn6)cc5)c5c(N)nccn45)(CC2)C3)CCOCC1` [Compound A-10-15, N-(4-(8-amino-1-(4-((4-(trifluoromethyl)pyridin-2-yl)carbamoyl)phenyl)imidazo[1,5-a]pyrazin-3-yl)bicyclo[2.2.1]heptan-1-yl)-4-cyanotetrahydro-2H-pyran-4-carboxamide], the results for the concentration for half-maximal inhibition (IC50) in assay [1] and in assay [2] were 1 to 10 nM and 0.1 to 1 nM, respectively.

Turning to `COc1ccc(F)cc1C(=O)NCc1ccc(-c2nc(C34CCC(NC(=O)CN5CCOCC5)(CC3)C4)n3ccnc(N)c23)cc1` [Compound A-16-4, N-(4-(8-amino-3-(4-(2-morpholinoacetamido)bicyclo[2.2.1]heptan-1-yl)imidazo[1,5-a]pyrazin-1-yl)benzyl)-5-fluoro-2-methoxybenzamide], the IC50 in assay [1] and in assay [2] was 1 to 10 nM each time.

As for `Nc1nccn2c(C34CCC(NC(=O)c5cccnc5)(CC3)C4)nc(-c3ccc(C(=O)Nc4cc(C(F)(F)F)ccn4)cc3)c12` [Compound A-10-19, N-(4-(8-amino-1-(4-((4-(trifluoromethyl)pyridin-2-yl)carbamoyl)phenyl)imidazo[1,5-a]pyrazin-3-yl)bicyclo[2.2.1]heptan-1-yl)nicotinamide], the values for the IC50 in assay [1] and in assay [2] were 10 to 50 nM and 1 to 10 nM, respectively.

Take `CC1(C(=O)NC23CCC(n4cc(-c5ccc(C(=O)Nc6cc(C(F)(F)F)ccn6)cc5)c5c(N)ncnc54)(CC2)C3)COC1` [Compound B-6-4, N-(4-(4-amino-5-(4-((4-(trifluoromethyl)pyridin-2-yl)carbamoyl)phenyl)-7H-pyrrolo[2,3-d]pyrimidin-7-yl)bicyclo[2.2.1]heptan-1-yl)-3-methyloxetane-3-carboxamide]: the half-maximal inhibitory concentration (IC50) in assay [1] and in assay [2] was 1 to 10 nM throughout.

In the case of `CC(C)(O)C(=O)NC12CCC(c3nc(-c4ccc(C(=O)Nc5cc(C(F)(F)F)ccn5)cc4)c4c(N)nccn34)(CC1)C2` [Compound A-10-6, 4-(8-amino-3-(4-(2-hydroxy-2-methylpropanamido)bicyclo[2.2.1]heptan-1-yl)imidazo[1,5-a]pyrazin-1-yl)-N-(4-(trifluoromethyl)pyridin-2-yl)benzamide], the IC50 in assay [1] is 1 to 10 nM; in assay [2] it was no more than 0.1 nM.

With `Nc1nccn2c(C34CCC(NC(=O)c5ccccn5)(CC3)C4)nc(-c3ccc(C(=O)Nc4cc(C(F)(F)F)ccn4)cc3)c12` [Compound A-10-18, N-(4-(8-amino-1-(4-((4-(trifluoromethyl)pyridin-2-yl)carbamoyl)phenyl)imidazo[1,5-a]pyrazin-3-yl)bicyclo[2.2.1]heptan-1-yl)picolinamide], the concentration for half-maximal inhibition (IC50) in assay [1] is 10 to 50 nM; in assay [2], 1 to 10 nM.

For the origin of these results see patent publication US11420975B2, “Substituted imidazo[1,5-a]pyrazines as Bruton's tyrosine kinase inhibitors” (TRANSTHERA SCIENCES (NANJING), INC., priority 2018, dated 2022).
